Experimental data taken from US20150166528A1, “Pesticidal methods using substituted 3-pyridyl thiazole compounds and derivatives for combating animal pests” (BASF SE, priority 2012, published 2015).

Tests used:
Assay type in all cases: in vivo
Megoura viciae = assay: Vetch aphid (Megoura viciae) leaf disk test, contact or systemic; settings: foliar, 120 h, sprayed broad bean leaf disks, adult aphids, 5 days, read-out: mortality in comparison with untreated controls
Procedure: For evaluating control of vetch aphid (Megoura viciae) through contact or systemic means the test unit consisted of 24-well-microtiter plates containing broad bean leaf disks.
The compounds were formulated using a solution containing 75% v/v water and 25% v/v DMSO. Different concentrations of formulated compounds were sprayed onto the leaf disks at 2.5 μl, using a custom built micro atomizer, at two replications.
After application, the leaf disks were air-dried and 5-8 adult aphids were placed on the leaf disks inside the microtiter plate wells. The aphids were then allowed to suck on the treated leaf disks and were incubated at about 23±1° C. and about 50±5% relative humidity for 5 days. Aphid mortality and fecundity were then visually assessed.

Aphis Craccivora = assay: Cowpea aphid (Aphis craccivora) potted cowpea plant spray test; settings: sprayed potted cowpea plants, population reduction assessed after 24, 72 and 120 hours, read-out: mortality in comparison with untreated controls
Procedure: The active compound was dissolved at the desired concentration in a mixture of 1:1 (vol:vol) distilled water:acetone. The test solution was prepared at the day of use.
Potted cowpea plants colonized with approximately 100-150 aphids of various stages were sprayed after the pest population has been recorded. Population reduction was assessed after 24, 72, and 120 hours.

Myzus persicae = assay: Green peach aphid (Myzus persicae) artificial diet test, systemic; settings: 72 h, in liquid artificial aphid diet, adult aphids, 3 days, read-out: mortality in comparison with untreated controls
Excerpt: For evaluating control of green peach aphid (Myzus persicae) through systemic means the test unit consisted of 96-well-microtiter plates containing liquid artificial diet under an artificial membrane.
The compounds were formulated using a solution containing 75% v/v water and 25% v/v DMSO. Different concentrations of formulated compounds were pipetted into the aphid diet, using a custom built pipetter, at two replications.
After application, 5-8 adult aphids were placed on the artificial membrane inside the microtiter plate wells. The aphids were then allowed to suck on the treated aphid diet and were incubated at about 23±1° C. and about 50±5% relative humidity for 3 days. Aphid mortality and fecundity was then visually assessed.

Bemisia Argentifolii = assay: Silverleaf whitefly (Bemisia argentifolii) cotton plant spray test; settings: 72 h, sprayed cotton plants, whitefly adults, 3 days after treatment, read-out: mortality in comparison with untreated controls
Excerpt: The active compounds were formulated in cyclohexanone as a 10,000 ppm solution supplied in tubes. The tubes were inserted into an automated electrostatic sprayer equipped with an atomizing nozzle and they served as stock solutions for which lower dilutions were made in 50% acetone:50% water (v/v). A nonionic surfactant (Kinetic®) was included in the solution at a volume of 0.01% (v/v).
Cotton plants at the cotyledon stage (one plant per pot) were sprayed by an automated electrostatic plant sprayer equipped with an atomizing spray nozzle. The plants were dried in the sprayer fume hood and then removed from the sprayer. Each pot was placed into a plastic cup and about 10 to 12 whitefly adults (approximately 3-5 days old) were introduced. The insects were collected using an aspirator and a nontoxic Tygon® tubing connected to a barrier pipette tip. The tip, containing the collected insects, were gently inserted into the soil containing the treated plant, allowing insects to crawl out of the tip to reach the foliage for feeding. Cups were covered with a reusable screened lid. Test plants were maintained in a growth room at about 25° C. and about 20-40% relative humidity for 3 days, avoiding direct exposure to fluorescent light (24 hour photoperiod) to prevent trapping of heat inside the cup. Mortality was assessed 3 days after treatment, compared to untreated control plants.

Heliothis virescens = assay: Tobacco budworm (Heliothis virescens) insect diet egg/larval test; settings: 120 h, sprayed onto insect diet with eggs, egg and larval mortality, 5 days, read-out: mortality in comparison with untreated controls
Procedure: For evaluating control of tobacco budworm (Heliothis virescens) the test unit consists of 96-well-microtiter plates containing an insect diet and 15-25 H. virescens eggs.
The compounds were formulated using a solution containing 75% v/v water and 25% v/v DMSO. Different concentrations of formulated compounds were sprayed onto the insect diet at 10 μl, using a custom built micro atomizer, at two replications.
After application, microtiter plates were incubated at about 28±1° C. and about 80±5% relative humidity for 5 days. Egg and larval mortality was then visually assessed.

Row | Structure (SMILES) | mortality at 800 ppm (Megoura viciae) [%] | mortality at 100 ppm (Aphis Craccivora) [%] | mortality at 800 ppm (Myzus persicae) [%] | mortality at 300 ppm (Bemisia Argentifolii) [%] | mortality at 800 ppm (Heliothis virescens) [%]
1 | CCN(C1=NCCS1)c1sc(-c2cccnc2)nc1Cl [C.3, 4-chloro-N-(4,5-dihydrothiazol-2-yl)-N-ethyl-2-(3-pyridyl)thiazol-5-amine] | ≥ 75 | ≥ 75 | – | – | –
2 | CCN(C1=NCCS1)c1cnc(-c2cccnc2)s1 [C.1, N-(4,5-dihydrothiazol-2-yl)-N-ethyl-2-(3-pyridyl)thiazol-5-amine] | ≥ 75 | ≥ 75 | ≥ 75 | ≥ 75 | –
3 | [O-][S+](c1ncccn1)c1cnc(-c2cccnc2)s1 (centres unmarked) [C.11, 2-(3-Pyridyl)-5-pyrimidin-2-ylsulfinyl-thiazole] | – | – | – | – | ≥ 75
4 | CCN(C1=NCCO1)c1sc(-c2cccnc2)nc1Cl [C.4, N-[4-chloro-2-(3-pyridyl)thiazol-5-yl]-N-ethyl-4,5-dihydrooxazol-2-amine] | ≥ 75 | ≥ 75 | ≥ 75 | ≥ 75 | –
